Laboratory results from patent US20260325533A1, “CDK INHIBITOR COMPOUNDS” (ALEKSIA THERAPEUTICS, INC., priority 2023, published 2026).
Where a name gives a salt, the structure may show the parent alone. Read-outs that look alike come from different tables or passages of the source.

Tests used:
Format in all cases: biochemical
[1] = molecular target: CDK2/CCNE1 (Homo sapiens, UniProt P24941); experiment: CDK2 homogeneous time-resolved fluorescence (HTRF) kinase assay
In short: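 An HTRF format measures CDK2/CCNE1 (3 nM) phosphorylating a 4E-BP1 Thr37/46 peptide at high (1 mM) ATP. Reactions run one hour at 23 °C, then EDTA-quenched and probed with Eu-labelled phospho-specific antibody.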

[2] = molecular target: CDK1/CCNB1 (Homo sapiens, UniProt P06493); experiment: CDK1 homogeneous time-resolved fluorescence (HTRF) kinase assay
In short: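 Read-out: TR-FRET (Eu anti-phospho-4E-BP1 Thr37/46 antibody, 2 nM; 665 nm or 665/615 ratio) after 60 min phosphorylation of 50 nM ULight-peptide by 0.5 nM CDK1/CCNB1 at 1 mM ATP, 23 °C. Compound preincubated 20 min with enzyme; 1% DMSO.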

[3] = molecular target: CDK4/CCND3 (Homo sapiens, UniProt P11802); experiment: CDK4 homogeneous time-resolved fluorescence (HTRF) kinase assay
In short: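 TR-FRET read (665 nm, or 665/615 ratio) of 4E-BP1 Thr37/46 phosphorylation by 1.5 nM CDK4/CCND3 at 1 mM ATP, 50 nM ULight peptide, 1% DMSO. Reaction ran 60 min at 23 °C after 20 min compound–enzyme preincubation. IC50 from 11-point half-log dilutions, top 10 μM.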

[4] = molecular target: CDK6/CCND1 (Homo sapiens, UniProt Q00534); experiment: CDK6 homogeneous time-resolved fluorescence (HTRF) kinase assay
In short: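 Assay conditions: HEPES buffer containing 10 mM MgCl2, 1 mM EGTA, 2 mM DTT, 0.01% Tween 20; 1 nM CDK6/CCND1, 50 nM peptide substrate, 1 mM ATP. Detection after 60 min reaction used 2 nM europium antibody with 340 nm excitation. Potency fitted from half-log series, 11 points.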

[5] = <25 nM, CDK2/CCNE, read-out: CDK2/CCNE IC50, <25 nM
[6] = 25-250 nM, CDK1/CCNB, read-out: CDK1/CCNB IC50, 25-250 nM
[7] = 25-250 nM, CDK4/CCND, read-out: CDK4/CCND IC50, 25-250 nM
[8] = 25-250 nM, CDK6/CCND, 1 mM ATP, read-out: CDK6/CCND IC50, 25-250 nM
[9] = 25-250 nM, CDK2/CCNE, read-out: CDK2/CCNE IC50, 25-250 nM
[10] = >250 nM, CDK1/CCNB, read-out: CDK1/CCNB IC50 >250 nM
[11] = >250 nM, CDK4/CCND, read-out: CDK4/CCND IC50, >250 nM
[12] = >250 nM, CDK6/CCND, 1 mM ATP, read-out: CDK6/CCND IC50, >250 nM
[13] = 3 nM CDK2/CCNE1, 1 mM ATP, read-out: CDK2/CCNE IC50 25-250 nM
[14] = 0.5 nM CDK1/CCNB1, 1 mM ATP, read-out: CDK1/CCNB IC50 >250 nM
[15] = 3 nM CDK2/CCNE1, 1 mM ATP, read-out: CDK2/CCNE IC50 >250 nM
[16] = 1.5 nM CDK4/CCND3, 1 mM ATP, read-out: CDK4/CCND IC50 >250 nM
[17] = 1 nM CDK6/CCND1, 1 mM ATP, read-out: CDK6/CCND IC50 >250 nM

Sequence of CDK6/CCND1 (Q00534 whole entry): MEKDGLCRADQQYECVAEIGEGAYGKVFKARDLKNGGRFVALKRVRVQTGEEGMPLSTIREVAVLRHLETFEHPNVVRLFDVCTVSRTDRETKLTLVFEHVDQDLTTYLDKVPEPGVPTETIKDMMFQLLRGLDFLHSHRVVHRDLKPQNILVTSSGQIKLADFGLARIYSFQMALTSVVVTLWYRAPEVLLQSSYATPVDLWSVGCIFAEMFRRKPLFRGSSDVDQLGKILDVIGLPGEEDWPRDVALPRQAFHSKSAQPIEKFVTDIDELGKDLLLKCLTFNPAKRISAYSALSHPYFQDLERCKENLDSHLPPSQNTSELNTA
Sequence of CDK6/CCND1 (P24385 whole entry partner): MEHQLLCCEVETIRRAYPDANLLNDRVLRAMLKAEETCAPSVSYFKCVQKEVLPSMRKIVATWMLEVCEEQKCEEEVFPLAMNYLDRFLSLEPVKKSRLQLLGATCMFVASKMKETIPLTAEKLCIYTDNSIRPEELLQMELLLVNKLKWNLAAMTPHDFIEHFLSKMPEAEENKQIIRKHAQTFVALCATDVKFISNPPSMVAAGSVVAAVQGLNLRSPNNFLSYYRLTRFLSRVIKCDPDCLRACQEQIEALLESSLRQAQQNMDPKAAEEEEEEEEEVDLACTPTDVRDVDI
Sequence of CDK1/CCNB1 (P06493 whole entry): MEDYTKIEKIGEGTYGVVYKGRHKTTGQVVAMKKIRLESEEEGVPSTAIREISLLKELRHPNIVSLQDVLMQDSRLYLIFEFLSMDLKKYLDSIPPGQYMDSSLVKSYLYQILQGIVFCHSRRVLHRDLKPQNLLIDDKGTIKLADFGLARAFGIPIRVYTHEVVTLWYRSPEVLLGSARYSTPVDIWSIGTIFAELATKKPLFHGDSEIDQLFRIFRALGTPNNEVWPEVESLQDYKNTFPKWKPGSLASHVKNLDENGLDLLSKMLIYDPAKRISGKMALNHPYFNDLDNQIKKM
Sequence of CDK1/CCNB1 (P14635 whole entry partner): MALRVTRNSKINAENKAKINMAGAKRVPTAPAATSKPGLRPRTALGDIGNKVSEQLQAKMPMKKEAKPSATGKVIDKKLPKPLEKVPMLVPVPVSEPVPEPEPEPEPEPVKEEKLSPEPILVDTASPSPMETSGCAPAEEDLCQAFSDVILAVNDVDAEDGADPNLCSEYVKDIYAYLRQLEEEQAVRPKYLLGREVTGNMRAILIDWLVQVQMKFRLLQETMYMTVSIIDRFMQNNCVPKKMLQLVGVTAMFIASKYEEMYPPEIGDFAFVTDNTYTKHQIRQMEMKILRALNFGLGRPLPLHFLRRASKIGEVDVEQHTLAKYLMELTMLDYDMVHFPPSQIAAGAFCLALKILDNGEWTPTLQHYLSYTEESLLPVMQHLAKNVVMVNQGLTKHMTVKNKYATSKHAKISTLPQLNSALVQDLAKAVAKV
Sequence of CDK4/CCND3 (P11802 whole entry): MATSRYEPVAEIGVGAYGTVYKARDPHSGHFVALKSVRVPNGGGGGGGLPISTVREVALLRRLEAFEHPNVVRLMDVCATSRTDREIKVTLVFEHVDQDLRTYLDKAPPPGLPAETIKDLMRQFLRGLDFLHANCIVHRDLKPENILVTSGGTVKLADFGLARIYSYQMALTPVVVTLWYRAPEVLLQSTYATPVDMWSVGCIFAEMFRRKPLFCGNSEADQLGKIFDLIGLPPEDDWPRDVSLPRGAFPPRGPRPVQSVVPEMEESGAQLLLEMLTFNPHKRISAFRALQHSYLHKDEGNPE
Sequence of CDK4/CCND3 (P30281 whole entry partner): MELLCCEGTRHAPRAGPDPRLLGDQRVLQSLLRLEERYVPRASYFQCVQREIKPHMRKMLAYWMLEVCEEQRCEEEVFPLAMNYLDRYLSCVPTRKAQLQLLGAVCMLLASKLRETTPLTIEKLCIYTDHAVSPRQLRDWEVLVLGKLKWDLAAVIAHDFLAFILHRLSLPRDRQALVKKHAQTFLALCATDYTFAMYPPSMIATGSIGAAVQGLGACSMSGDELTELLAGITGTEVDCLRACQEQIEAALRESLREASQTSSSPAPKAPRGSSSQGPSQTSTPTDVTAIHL

| IC50 [1, 9] | IC50 [2, 10] | IC50 [3, 11] | IC50 [4, 12] | IC50 [2, 14] | IC50 [3, 16] | IC50 [4, 17] | Structure (SMILES) | also measured |
| --- | --- | --- | --- | --- | --- | --- | --- | --- |
| – | – | – | – | – | – | – | Cc1c(-c2nccc3cnc(Nc4ccc(S(=O)(=O)Nc5ccc(N(C)C)nn5)cc4)cc23)ccc2c1cnn2CC(C)(C)O [Example 765, N-(6-(dimethylamino)pyridazin-3-yl)-4-((5-(1-(2-hydroxy-2-methylpropyl)-4-methyl-1H-indazol-5-yl)-2,6-naphthyridin-3-yl)amino)benzenesulfonamide] | IC50 [1, 5]: < 25 nM; IC50 [2, 6]: 25 to 250 nM; IC50 [3, 7]: 25 to 250 nM; IC50 [4, 8]: 25 to 250 nM |
| 25 to 250 nM | > 250 nM | > 250 nM | > 250 nM | – | – | – | Cc1c(-c2nccc3cnc(Nc4ccc(NS(=O)(=O)c5cc6ccccc6o5)cc4)cc23)ccc2c1cnn2CC(C)(C)O [Example 776, N-(4-((5-(1-(2-hydroxy-2-methylpropyl)-4-methyl-1H-indazol-5-yl)-2,6-naphthyridin-3-yl)amino)phenyl)benzofuran-2-sulfonamide] | – |
| – | > 250 nM | > 250 nM | – | – | – | – | Cc1c(-c2nccc3cnc(Nc4ccc(S(C)(=O)=O)cc4O)cc23)ccc2c1cnn2CC(C)(C)O [Example 784, 2-((5-(1-(2-hydroxy-2-methylpropyl)-4-methyl-1H-indazol-5-yl)-2,6-naphthyridin-3-yl)amino)-5-(methylsulfonyl)phenol] | IC50 [1, 5]: < 25 nM; IC50 [4, 8]: 25 to 250 nM |
| 25 to 250 nM | > 250 nM | > 250 nM | > 250 nM | – | – | – | Cc1c(-c2ncc(F)c3cnc(Nc4ccc(S(C)(=O)=O)cc4)cc23)ccc2c1cnn2CC(C)(C)O [Example 788, 1-(5-(4-fluoro-7-((4-(methylsulfonyl)phenyl)amino)-2,6-naphthyridin-1-yl)-4-methyl-1H-indazol-1-yl)-2-methylpropan-2-ol] | – |
| 25 to 250 nM | > 250 nM | > 250 nM | > 250 nM | – | – | – | Cc1c(-c2nccc3cnc(Nc4ccc(S(=O)(=O)Nc5nc(C(F)(F)F)cc(C(F)(F)F)n5)cc4)cc23)ccc2c1cnn2CC(C)(C)O [Example 789, N-(4,6-bis(trifluoromethyl)pyrimidin-2-yl)-4-((5-(1-(2-hydroxy-2-methylpropyl)-4-methyl-1H-indazol-5-yl)-2,6-naphthyridin-3yl)amino)benzenesulfonamide] | – |
| – | > 250 nM | > 250 nM | > 250 nM | – | – | – | COc1ccc(C(=O)N2CC[C@@H](Nc3cc4c(-c5ccc6c(cnn6CC(C)(C)O)c5C)nccc4cn3)C2)cc1 [Example 790, (R)-(3-((5-(1-(2-hydroxy-2-methylpropyl)-4-methyl-1H-indazol-5-yl)-2,6-naphthyridin-3-yl)amino)pyrrolidin-1-yl)(4-methoxyphenyl)methanone] | IC50 [1, 5]: < 25 nM |
| 25 to 250 nM | > 250 nM | > 250 nM | > 250 nM | – | – | – | CS(=O)(=O)c1ccc(Nc2cc3c(C#Cc4cnc(F)c(F)c4)nccc3cn2)cc1 [Example 852, 5-((5,6-difluoropyridin-3-yl)ethynyl)-N-(4-(methylsulfonyl)phenyl)-2,6-naphthyridin-3-amine] | – |
| 25 to 250 nM | > 250 nM | > 250 nM | > 250 nM | – | – | – | N#Cc1ccc(C#Cc2nccc3cnc(Nc4ccc5c(c4)OCCS5(=O)=O)cc23)cc1 [Example 862, 4-((7-((4,4-dioxido-2,3-dihydrobenzo[b][1,4]oxathiin-7-yl)amino)-2,6-naphthyridin-1-yl)ethynyl)benzonitrile] | – |
| 25 to 250 nM | > 250 nM | > 250 nM | > 250 nM | – | – | – | CN1CCN(c2ccc(C#Cc3nccc4cnc(Nc5ccc(S(=O)(=O)O)cc5)cc34)cc2)CC1 [Example 863, 4-((5-((4-(4-methylpiperazin-1-yl)phenyl)ethynyl)-2,6-naphthyridin-3-yl)amino)benzenesulfonic acid] | – |
| 25 to 250 nM | > 250 nM | > 250 nM | > 250 nM | – | – | – | CC#Cc1nccc2cnc(Nc3ccc(S(=O)(=O)Nc4nccc(N5CCN(C)CC5)n4)cc3)cc12 [Example 877, N-(4-(4-methylpiperazin-1-yl)pyrimidin-2-yl)-4-((5-(prop-1-yn-1-yl)-2,6-naphthyridin-3-yl)amino)benzenesulfonamide] | – |
| – | > 250 nM | > 250 nM | > 250 nM | – | – | – | Cc1c(-c2nccc3cnc(Nc4cnc(O)c(N5CCN(CCO)CC5)c4)cc23)ccc2c1cnn2CC(C)(C)O [Example 887, 5-((5-(1-(2-hydroxy-2-methylpropyl)-4-methyl-1H-indazol-5-yl)-2,6-naphthyridin-3-yl)amino)-3-(4-(2-hydroxyethyl)piperazin-1-yl)pyridin-2-ol] | IC50 [1, 5]: < 25 nM |
| – | – | – | – | – | – | – | CC(=O)NC1CCN(c2ccc(Nc3cc4c(-c5ccc6c(cnn6CC(C)(C)O)c5C)nccc4cn3)cc2S(C)(=O)=O)C1 (stereo not shown) [Example 930, N-(1-(4-((5-(1-(2-hydroxy-2-methylpropyl)-4-methyl-1H-indazol-5-yl)-2,6-naphthyridin-3-yl)amino)-2-(methylsulfonyl)phenyl)pyrrolidin-3-yl)acetamide] | IC50 [1, 5]: < 25 nM; IC50 [2, 6]: 25 to 250 nM; IC50 [3, 7]: 25 to 250 nM; IC50 [4, 8]: 25 to 250 nM |
| – | – | – | – | > 250 nM | – | – | CS(=O)(=O)c1ccc(Nc2cc3c(C#Cc4ccc5c(c4)CCNC5)c(C#N)ccc3cn2)cc1 [Example 947, 3-((4-(methylsulfonyl)phenyl)amino)-5-((1,2,3,4-tetrahydroisoquinolin-6-yl)ethynyl)isoquinoline-6-carbonitrile] | IC50 [1, 13]: 25 to 250 nM; IC50 ([3]; 1.5 nM CDK4/CCND3, 1 mM ATP, read-out: CDK4/CCND IC50 25-250 nM): 25 to 250 nM; IC50 ([4]; 1 nM CDK6/CCND1, 1 mM ATP, read-out: CDK6/CCND IC50 25-250 nM): 25 to 250 nM |
| – | – | – | – | > 250 nM | > 250 nM | > 250 nM | CS(=O)(=O)c1ccc(Nc2ncc3ccc(C#N)c(C#Cc4ccc5c(c4)CCNC5)c3n2)cc1 [Example 948, 2-((4-(methylsulfonyl)phenyl)amino)-8-((1,2,3,4-tetrahydroisoquinolin-6-yl)ethynyl)quinazoline-7-carbonitrile, TFA Salt] | IC50 [1, 15]: > 250 nM |
| – | – | – | – | > 250 nM | > 250 nM | > 250 nM | CS(=O)(=O)c1ccc(Nc2ncc3ccnc(C#Cc4ccc(C#N)cc4)c3n2)cc1 [Example 949, 4-((2-((4-(methylsulfonyl)phenyl)amino)pyrido[3,4-d]pyrimidin-8-yl)ethynyl)benzonitrile] | IC50 [1, 15]: > 250 nM |
| – | – | – | – | > 250 nM | > 250 nM | > 250 nM | CS(=O)(=O)c1ccc(Nc2cc3c(C4=CCCCC4)ncnc3cn2)cc1 [Example 950, 4-(cyclohex-1-en-1-yl)-N-(4-(methylsulfonyl)phenyl)pyrido[3,4-d]pyrimidin-6-amine] | IC50 [1, 13]: 25 to 250 nM |
| – | – | – | – | > 250 nM | > 250 nM | > 250 nM | CS(=O)(=O)c1ccc(Nc2cc3c(N4CCC(C#N)CC4)c(C#N)cnc3cn2)cc1 [Example 953, 4-(4-cyanopiperidin-1-yl)-6-((4-(methylsulfonyl)phenyl)amino)-1,7-naphthyridine-3-carbonitrile] | IC50 [1, 15]: > 250 nM |
| – | – | – | – | > 250 nM | > 250 nM | > 250 nM | Cc1cc(N2CCC(C#N)CC2)c2nc(Nc3ccc(S(C)(=O)=O)cc3)ncc2c1 [Example 954, 1-(6-methyl-2-((4-(methylsulfonyl)phenyl)amino)quinazolin-8-yl)piperidine-4-carbonitrile] | IC50 [1, 15]: > 250 nM |
| – | – | – | – | > 250 nM | > 250 nM | > 250 nM | CS(=O)(=O)c1ccc(Nc2ncc3ccc(C#N)c(C#Cc4ccc(C#N)cc4)c3n2)cc1 [Example 955, 8-((4-cyanophenyl)ethynyl)-2-((4-(methylsulfonyl)phenyl)amino) quinazoline-7-carbonitrile] | IC50 [1, 15]: > 250 nM |
